What was measured:
[1] = target: T1, Tau 441 (Homo sapiens, UniProt P10636); experiment: ThS fluorescence assay, Tau 441 aggregation; assay type: biochemical; conditions: Tau 441 6 μM; compound 50 μM and 10 μM; 24 hours, 37° C., FIG. 15
Procedure: (§1) The following procedures were used. The compounds were examined by circular dichroism (CD) to confirm their anti-amyloidogenic activity and were further evaluated for inhibition of both tau and α-synuclein aggregation in Thioflavin S (ThS) and ThT dye-binding fluorescence assays, respectively. The compounds were also evaluated in a MTT [3-(4,5-dimethylthiazol-2-yl)-2,5-diphenyltetrazolium bromide] cell viability assay (Kaneko, I., et al., J. Neurochem. (1995) 65: 2585-93). Pharmacokinetic (PK) testing was also performed. Compounds administered to mice (IP or PO dosing) had no toxicity at doses up to 300 mg/kg and were present in brain more than four hours after administration.
(§2) Dye-binding ThT/ThS protein aggregation assays for Aβ, tau and α-synuclein were performed as described in Example 8 of US2007/0015813.

[2] = target: T1, Tau 441; experiment: Tris-tricine SDS-PAGE, Tau 441 self-assembly following ThS aggregation assay; assay type: biochemical; conditions: FIG. 10; for effect on Tau 441 self-assembly, monomer fragmentation (SDS-PAGE): relative to control
Procedure: (§3) Pre-cast polyacrylamide gels were purchased from NuSep (10-20% Tris-tricine-SDS). These were chosen for their large separation range of 2.5 to 205 kDa. Molecular weight markers were purchased from Sigma Aldrich and diluted twenty fold for individual use. Three buffers were used for this technique: 1) Sample buffer (1.25 mL 0.5 M Tris-HCl (pH 6.8), 2.5 mL glycerol, 2.0 mL 10% SDS, 0.2 mL 0.5% bromophenol blue, 3.55 mL distilled water) which was used as the leading band in the gel. 2) Cathode Buffer (12.11 g tris base, 17.92 g tricine, 1 g SDS, diluted to 1 L with distilled water) which was the inner buffer in the tank assembly. 3) Anode Buffer (5× concentrated: 121.1 g tris base in 1 L of distilled water, pH 8.9 adjusted with concentrated HCl) which was the outer buffer and loaded at 1× concentration. Both Aβ1-40 and Aβ1-42 were purchased from Anaspec.
(§4) Five solutions were required to stain the gels using the silver stain protocol: 1) Fixer 1 (40% methanol, 10% acetic acid, diluted to 1 L with Millie-Q water) 2) Fixer 2 (45 g anhydrous sodium acetate, 300 mL methanol, 5 mL 25% glutaraldehyde, diluted to 1 L with Millie-Q water), 3) a) Silver stain A (15 mL of 25% ammonia solution, 0.8 g sodium hydroxide, diluted to 950 mL with Millie Q water). b) Silver stain B (6 g of silver nitrate in 50 mL Millie Q water). Solution B was then slowly added to solution A. 4) Developer (0.1 g citric acid, 1 mL formaldehyde, diluted to 1 L with Millie-Q water), 5) Stop solution (50 mL acetic acid, diluted to 1 L with Millie-Q water).
(§5) Following a ThT (Aβ1-40) or ThS (Tau 441) aggregation assay, described in Example 8 of US2007/0015813, samples were immediately aspirated and stored in centrifuge tubes. 10 μL of each sample was transferred to a microfuge tube and diluted 1:1 with sample buffer before being incubated (37° C.) for 30 minutes and loaded in the precast gels (15 μL in each well). The gel was then run at 100 V for approximately one hour or until the leading band reached the bottom of the gel.
(§6) Once the gel had finished running, it was removed from its plastic case and placed in a tray for staining. Approximately 200-250 mL volume was used for all the solutions. The gel was first washed with distilled water briefly to rinse off the excess buffer from the tank. It was then immersed in Fixer 1 for 30 minutes. followed by Fixer 2 for 30 minutes. Once the gel was fixed it then underwent three water washes at 10 minutes per wash. After the water washes, the gel was stained for 30 minutes using the silver stain solution. Excess stain was removed using three four-minute water washes. The gel was then immersed in the developer solution to visualize the stain. This took place for approximately 5 minutes or until the desired intensity was reached. To immediately stop the developing process the gel was placed in the stop solution for 10 minutes.

[3] = target: T1, Tau 441; experiment: TEM of Tau 441 fibrils following ThS aggregation assay; assay type: biochemical; conditions: Tau 441 6 μM, compound 20 μM, FIG. 14
Procedure: (§7) A modified version of the procedure of Cohen et al. (Biochemistry 2006, 45: 4727-35) was followed for TEM analysis. Uranylacetate was used as negative stain (Electron Microscopy Sciences) and was made as a 3% solution and stored at 5° C. in the dark to reduce photodecay. Aspirated samples from ThT (Aβ1-40) and ThS (Tau 441) aggregation assays, or Aβ1-42 incubated (37° C.) for 30 min. in the presence and absence of compounds were used in the TEM analyses. Samples were carefully loaded on Formvar-coated 400 mesh copper grids (Electron Microscopy Sciences) as a 10 μL drop. After sitting for 60 seconds, excess fluid was gently dabbed off with filter paper. Next, the 3% uranylacetate was added as a drop onto the grid and left to stand for another 60 seconds. The excess fluid was again dabbed off by filter paper. Samples were left to dry for at least 30 minutes prior to being viewed on an electron microscope operating at 80 kV.

[4] = target: T2, Aβ1-40 (Homo sapiens, UniProt P05067); experiment: ThT fluorescence assay, inhibition of Aβ1-40 aggregation; assay type: biochemical
T2 construct: Both Aβ1-40 and Aβ1-42 were purchased from Anaspec; purchased Anaspec
T2 sequence (P05067 672-711 limits assumed): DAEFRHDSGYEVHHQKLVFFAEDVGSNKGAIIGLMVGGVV
Procedure: The compounds of the invention were evaluated for activity against Aβ aggregation in a kinetic thioflavin T (ThT) fluorescence assay similar to that of Chalifour, R. J., et al., J. Biol. Chem. (2003) 278: 34874-81. IC50 values for inhibition of Aβ1-40 aggregation in the ThT fluorescence assay for a number compounds of the present invention were determined. Values were calculated by solving the equation y=(m2)/(1+(x/m3)^m4) where y is percent aggregation, x is compound concentration, and m3 is the concentration giving 50% aggregation (i.e. IC50), using KaleidaGraph 4.0 (Synergy Software). Dye-binding ThT/ThS protein aggregation assays for Aβ, tau and α-synuclein were performed as described in Example 8 of US2007/0015813.

[5] = target: α-synuclein (Homo sapiens, UniProt P37840); experiment: ThT fluorescence assay, α-synuclein aggregation; assay type: biochemical; conditions: α-synuclein 4 μM; compound 100 μM and 20 μM; 96 hours, 37° C., FIG. 16
Procedure: as §1, §2

[6] = target: T3, Aβ1-42 (Homo sapiens, UniProt P05067); experiment: TEM of Aβ1-42 fibrils; assay type: biochemical; conditions: Aβ1-42 20 μM, absence of ThT, FIG. 13
T3 construct: Both Aβ1-40 and Aβ1-42 were purchased from Anaspec; purchased Anaspec
T3 sequence (P05067 672-713 limits assumed): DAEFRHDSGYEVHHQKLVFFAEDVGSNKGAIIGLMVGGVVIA
Procedure: as §7

[7] = target: T2, Aβ1-40; experiment: TEM of Aβ1-40 fibrils; assay type: biochemical; conditions: Aβ1-40 20 μM; for Aβ1-40 fibril formation (TEM): compound 20 μM, following ThT aggregation assay, FIG. 11; for Aβ1-40 fibrils (TEM): absence of ThT
Procedure: as §7

[8] = tested on: SH-SY5Y neuroblastoma cells; experiment: MTT cell viability assay, protection from Aβ40; assay type: cell-based; conditions: Aβ40 20 μM
Procedure: The assay was based on that reported by Conte and co-workers (Conte, A., Pellegrini, s. & Tagliazucchi, D. 2Q03. Brain Res. Bull. 62, 29-38). Briefly, Aβ1-40 (1.0 mg) was dissolved directly in Tris base ([…], […], pH approximately 10). The pH was dropped to 7.4 using concentrated HCl and the solution diluted ten-fold with growth medium consisting of Dulbecco's Modified Eagle Medium (high glucose) containing 10% fetal bovine serum. penicillin-G (10,000 units/mL) and streptomycin (10 mg/mL); giving 20 μM Aβ40. For non-Aβ-containing controls. growth medium was diluted 10% with Tris buffer (20 mM, pH 7.4). SH-SY5Y neuroblastoma cells were seeded at approximately 20,000 cells per well in a covered 96-well clear polystyrene plate and incubated at 37° C., 5% CO2 for 24 h. After discarding supernatant, growth medium (200 μL), containing either Aβ3-40 or vehicle (controls), was added to the wells, followed by test compound in DMSO (0.5 μL) or DMSO alone (controls). Incubations all had 5 or more replicates. After incubating for 6-10 h (37° C., 5% C02), the dye 3-(4,5-dimethylthiazol-2-yl)-2,5-diphenyltetrazolium bromide (MTT, 20 microL. 5 mg/mL in PBS) was added to each well and the plate incubated for another 2 h. Medium was discarded and the formazan product dissolved by adding DMSO (100 μL) and shaking. Absorbance was measured at 540 nm in a Tecan Genios microplate reader.

[9] = target: T2, Aβ1-40; experiment: Tris-tricine SDS-PAGE, Aβ1-40 self-assembly following ThT aggregation assay; assay type: biochemical; conditions: FIG. 9
Procedure: as §3, §4, §5, §6

[10] = target: T3, Aβ1-42; experiment: Tris-tricine SDS-PAGE, Aβ1-42 self-assembly; assay type: biochemical; conditions: versus control, FIG. 8
Procedure: as §3
Five solutions were required to stain the gels using the silver stain protocol: 1) Fixer 1 (40% methanol, 10% acetic acid, diluted to 1 L with Millie-Q water) 2) Fixer 2 (45 g anhydrous sodium acetate, 300 mL methanol, 5 mL 25% glutaraldehyde, diluted to 1 L with Millie-Q water), 3) a) Silver stain A (15 mL of 25% ammonia solution, 0.8 g sodium hydroxide, diluted to 950 mL with Millie Q water). b) Silver stain B (6 g of silver nitrate in 50 mL Millie Q water). […]

T1 sequence (P10636 1-441 isoform P10636-8): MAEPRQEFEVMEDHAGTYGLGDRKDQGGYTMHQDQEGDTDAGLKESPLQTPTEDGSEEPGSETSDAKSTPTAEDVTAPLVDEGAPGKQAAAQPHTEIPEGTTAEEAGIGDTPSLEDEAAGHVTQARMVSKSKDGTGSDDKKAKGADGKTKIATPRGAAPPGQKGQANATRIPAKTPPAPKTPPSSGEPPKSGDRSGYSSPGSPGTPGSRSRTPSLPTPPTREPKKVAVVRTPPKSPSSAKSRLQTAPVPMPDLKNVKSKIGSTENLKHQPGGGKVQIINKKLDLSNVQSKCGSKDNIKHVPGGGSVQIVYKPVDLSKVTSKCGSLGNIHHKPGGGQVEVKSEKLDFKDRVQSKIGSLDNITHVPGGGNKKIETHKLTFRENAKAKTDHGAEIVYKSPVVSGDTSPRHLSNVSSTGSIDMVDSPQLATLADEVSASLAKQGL

O=C(O)c1cc2cc(-c3ccc4c(c3)OCCO4)ccc2c(Br)c1O [QR-0281, 4-Bromo-7-(2,3-dihydrobenzo[b][1,4]dioxin-7-yl)-3-hydroxyynaphthalene-2-carboxylic acid]
inhibition of Tau 441 aggregation (ThS fluorescence) [1]: greatly inhibited | Tau 441 dimer and trimer bands (SDS-PAGE) [2]: appearance of dimer and trimer bands | effect on Tau 441 self-assembly, monomer fragmentation (SDS-PAGE) [2]: decreased fragmentation of tau 441 monomer | Tau 441 assemblies seen (TEM) [3]: spherical assemblies that were not present in the control | Tau 441 fibril formation (TEM) [3]: increase in fibril formation | IC50 [4]: 4.6 µM

O=C(O)c1ccc2[nH]cc(-c3c(O)c(O)cc4ccccc34)c2c1 [QR-0194]
IC50 [4]: 17.7 µM | inhibition of α-synuclein aggregation (ThT fluorescence) [5]: showed inhibition | Aβ1-42 fibrils (TEM) ([6]; compound 20 μM): apparent increase in the number of fibrils | Aβ1-40 fibril formation (TEM) [7]: increase in fibril formation but of a different morphology

COc1ccc2cc(-c3c[nH]c4c(C(=O)O)cccc34)ccc2c1 [QR-0262, 3-(2-Methoxynaphthalen-6-yl)-1H-indole-7-carboxylic acid]
inhibition of Tau 441 aggregation (ThS fluorescence) [1]: only moderately inhibited | effect on Tau 441 self-assembly, monomer fragmentation (SDS-PAGE) [2]: no clear effect | Tau 441 assemblies seen (TEM) [3]: spherical assemblies that were not present in the control | Tau 441 fibril formation (TEM) [3]: increase in fibril formation | IC50 [4]: 4.4 µM

O=C(O)c1cccc2c(-c3c[nH]c4ccccc34)c[nH]c12 [QR-0112]
IC50 [4]: 34.4 µM | Aβ1-40 fibril formation (TEM) [7]: increase in fibril formation but of a different morphology | % cell viability, protection from Aβ40 ([8]; 50 μM compound): significantly protective | % cell viability, protection from Aβ40 ([8]; 2 and 10 μM compound): trends towards protection | effect on distribution of Aβ1-40 among states of assembly / monomer (SDS-PAGE) [9]: increase in the concentration of Aβ1-40 monomer

COc1ccc2[nH]cc(-c3c[nH]c4ccc(N)cc34)c2c1 [QR-0185]
IC50 [4]: 12.5 µM | Aβ1-42 fibrils (TEM) ([6]; compound 100 μM): decrease in fibrils

O=C(O)c1cc2cc(-c3ccc4cc(O)ccc4c3)ccc2c(Br)c1O [QR-0263, 4-bromo-3-hydroxy-7-(2-hydroxynaphthalen-6-yl)naphthalene-2-carboxylic acid]
inhibition of Tau 441 aggregation (ThS fluorescence) [1]: greatly inhibited | Tau 441 dimer and trimer bands (SDS-PAGE) [2]: appearance of dimer and trimer bands | effect on Tau 441 self-assembly, monomer fragmentation (SDS-PAGE) [2]: decreased fragmentation of tau 441 monomer | IC50 [4]: 1.93 µM | Aβ1-40 fibrils (TEM) ([7]; compound at 20, FIG. 12): reduction in fibrils

O=C(O)c1cccc2c(-c3c(O)c(O)cc4ccccc34)c[nH]c12 [QR-0273]
IC50 [4]: 10.3 µM | Aβ1-40 fibrils (TEM) ([7]; compound 100 μM, FIG. 12): increase in the number of fibrils | effect on Aβ1-42 self-assembly (SDS-PAGE) [10]: increase in the presence of monomer and pentamer as well as the appearance of a dimer

Oc1ccc2[nH]cc(-c3c[nH]c4ncccc34)c2c1 [QR-0161]
% cell viability, protection from Aβ40 ([8]; 20 and 50 μM compound): significantly active

Reference: patent publication US8362066B2, “Compounds and methods for treating protein folding disorders” (Treventis Corporation, priority 2006, dated 2013)
